Measured values taken from patent publication US10508108B2, “Tricyclic compounds as inhibitors of mutant IDH enzymes” (Merck Sharp & Dohme Corp., priority 2014, dated 2019).

The molecules below were run against R132H mutant IDH1 enzyme (Homo sapiens (Human), UniProt O75874, R132H) (assay: R132H IDH1 Enzymatic Assay). Details: R132H mutant IDH1 enzyme 1.5 nM final; luminescence (Kinase-GLO) readout.
Assay type: biochemical
Experimental: R132H IDH1 Enzymatic Assay
Luminescence is measured using a PerkinElmer Envision plate reader.

Chain of R132H mutant IDH1 enzyme (O75874 whole entry R132H): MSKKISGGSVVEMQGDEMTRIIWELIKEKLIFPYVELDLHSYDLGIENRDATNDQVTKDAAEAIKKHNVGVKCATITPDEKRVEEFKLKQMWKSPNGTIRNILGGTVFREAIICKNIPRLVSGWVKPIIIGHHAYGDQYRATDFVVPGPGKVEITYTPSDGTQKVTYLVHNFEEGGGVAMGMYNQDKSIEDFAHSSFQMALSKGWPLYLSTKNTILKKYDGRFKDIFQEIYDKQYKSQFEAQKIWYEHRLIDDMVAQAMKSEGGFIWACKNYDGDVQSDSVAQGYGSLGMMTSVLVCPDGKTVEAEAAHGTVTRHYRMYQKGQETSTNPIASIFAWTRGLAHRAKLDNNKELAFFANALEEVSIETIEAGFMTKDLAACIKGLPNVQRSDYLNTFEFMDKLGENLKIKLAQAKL

SMILES | IC50 [nM]
O=C(C1C[C@H]2COC[C@@H](C1)N2CC(F)(F)F)N1Cc2cccnc2Nc2ccc(N3C[C@H]4CC[C@@H]3CO4)cc21 (stereo partly drawn) [Example 129, (8-((1R,4R)-2-Oxa-5-azabicyclo[2.2.2]octan-5-yl)-5,11-dihydro-6H-benzo[b]pyrido[2,3-e][1,4]diazepin-6-yl)((1R,5S)-9-(2,2,2-trifluoroethyl)-3-oxa-9-azabicyclo[3.3.1]nonan-7-yl)methanone] | 6
O=C(C1C[C@H]2COC[C@@H](C1)N2CC(F)(F)F)N1Cc2cccnc2Nc2ccc(N3C[C@@H]4CC[C@H]3CO4)cc21 (stereo partly drawn) [Example 130, (8-((1 S,4S)-2-oxa-5-azabicyclo[2.2.2]octan-5-yl)-5,11-dihydro-6H-benzo[b]pyrido[2,3-e][1,4]diazepin-6-yl)((1R,5S)-9-(2,2,2-trifluoroethyl)-3-oxa-9-azabicyclo[3.3.1]nonan-7-yl)methanone] | 5
CC(C)[C@@H]1COC(=O)N1c1ccc2c(c1)N(C(=O)[C@]13C[C@H]4C[C@H](C[C@H](C4)C1)C3)Cc1cccnc1N2 [Example 119, (4R)-4-(1-Methylethyl)-3-{6-[(3S,5S,7S)-tricyclo[3.3.1.1˜3,7˜]dec-1-ylcarbonyl]-6,11-dihydro-5H-pyrido[2,3-b][1,5]benzodiazepin-8-yl}-1,3-oxazolidin-2-one] | 22
COC1CC2CCC(C1)C2C(=O)N1Cc2cccnc2Nc2ccc(N3CCOCC3)cc21 (centres unmarked) [Example 2, 6-{[(3s,8s)-3-methoxybicyclo[3.2.1]oct-8-yl]carbonyl}-8-morpholin-4-yl-6,11-dihydro-5H-pyrido[2,3-b][1,5]benzodiazepine] | 226
COC1CC2CCC(C1)C2C(=O)N1Cc2cccnc2Nc2ccc(N3CCOCC3)cc21 (centres unmarked) [Example 1, 6-{[(3r,8r)-3-Methoxybicyclo[3.2.1]oct-8-yl]carbonyl}-8-morpholin-4-yl-6,11-dihydro-5H-pyrido[2,3-b][1,5]benzodiazepine] | 1050
